In patent publication US20140242178A1, “TASTE-MASKED FORMULATIONS OF RALTEGRAVIR” (priority 2011, published 2014):

Tests used:
[1] = IMPAACT P1066: safety in HIV-1 infected pediatric patients; format: in vivo, human
Excerpt: Raltegravir has been studied in 126 antiretroviral treatment-experienced HIV-1 infected pediatric patients 2 through 18 years of age, in combination with other antiretroviral agents in IMPAACT P1066. Of the 126 patients, 96 received only the final recommended dose through at least 24 weeks.

[2] = cited from earlier work
[3] = laboratory abnormality, pediatric patients

Row | SMILES | ALT increased, Grade 3 [1, 3] [%] | AST increased, Grade 3 [1, 3] [%] | AST increased, Grade 4 [1, 3] [%] | GGT increased, Grade 3 [1, 3] [%] | bilirubin increased, Grade 3 [1, 3] [%] | creatinine increased, Grade 3 [1, 3] [%] | glucose abnormal, Grade 3 [1, 3] [%] | glucose decreased, Grade 3 [1, 3] [%] | magnesium decreased, Grade 3 [1, 3] [%] | neutrophil count decreased, Grade 4 [1, 3] [%] | neutrophil count decreased, Grade 3 ([1]; laboratory abnormality, pediatric patients 2 through 18 years) [%] | Grade 3 or higher adverse reactions (psychomotor hyperactivity, abnormal behavior, insomnia) ([1]; pediatric patients) | frequency, type and severity of drug related adverse reactions ([1]; pediatric patients) | serious Grade 2 possibly drug related allergic rash ([1]; pediatric patients) | solubility in acetonitrile ([2]; acetonitrile) | solubility in ethanol ([2]; ethanol) | solubility in isopropanol ([2]; isopropanol) | solubility in methanol ([2]; methanol) | solubility in water ([2]; water)
1 | Cc1nnc(C(=O)NC(C)(C)c2nc(C(=O)NCc3ccc(F)cc3)c(O)c(=O)n2C)o1 [Raltegravir] | 1.1 | 1.1 | 1.1 | 1.1 | 1.1 | 1.1 | 1.1 | 1.1 | 1.1 | 1.1 | 7.4 | one patient | comparable to those observed in adults | one | – | – | – | – | –
2 | Cc1nnc(C(=O)NC(C)(C)c2nc(C(=O)NCc3ccc(F)cc3)c([O-])c(=O)n2C)o1.[K+] [Raltegravir potassium, N-[(4-Fluorophenyl)methyl]-1,6-dihydro-5-hydroxy-1-methyl-2-[1-methyl-1-[[(5-methyl-1,3,4-oxadiazol-2-yl)carbonyl]amino]ethyl]-6-oxo-4-pyrimidinecarboxamide monopotassium salt] | – | – | – | – | – | – | – | – | – | – | – | – | – | – | very slightly soluble | very slightly soluble | insoluble | slightly soluble | soluble
